Patent EP2929883A1, “Pyrazole derivatives as dihydroorotate dehydrogenase (DHODH) inhibitors” (INSTITUT PASTEUR, priority 2014, dated 2015)
Converted amounts (≈) assume the structure as drawn.

Each compound was assayed on measles virus (assay: microbe, parasite or virus in culture). Conditions: Measles morbillivirus, 24 h.

CC(C)Oc1nn(-c2ncc(C3CC3)cc2F)cc1Oc1ccccc1F [example 66, 5-cyclopropyl-3-fluoro-2-(4-(2-fluorophenoxy)-3-isopropoxy-1H-pyrazol-1-yl)pyridine] and CC(C)Oc1nn(-c2ncc(C3CC3)cc2F)cc1Oc1ccccc1 [example 70, 5-cyclopropyl-3-fluoro-2-(3-isopropoxy-4-phenoxy-1H-pyrazol-1-yl)pyridine] fall in the same range of MIC50: 0.0005 to 0.05 µM (≈ 0.000186 to 0.0186 µg/mL) for the first, 0.0005 to 0.05 µM (≈ 0.000177 to 0.0177 µg/mL) for the second.

CCOc1nn(-c2ccc(C3CC3)cn2)c(C)c1Oc1ccccc1F [example 68, 5-cyclopropyl-2-(3-ethoxy-4-(2-fluorophenoxy)-5-methyl-1H-pyrazol-1-yl)pyridine] and Cc1c(Oc2ccccc2F)c(OC(C)C)nn1-c1ccc(C2CC2)cn1 [example 69, 5-cyclopropyl-2-(4-(2-fluorophenoxy)-3-isopropoxy-5-methyl-1H-pyrazol-1-yl)pyridine] fall in the same range of MIC50: 0.0005 to 0.05 µM (≈ 0.000177 to 0.0177 µg/mL) for the first, 0.0005 to 0.05 µM (≈ 0.000184 to 0.0184 µg/mL) for the second.

CC(C)Oc1nn(-c2ccc(C3CC3)cn2)cc1Oc1ccccc1 [example 71, 5-cyclopropyl-2-(3-isopropoxy-4-phenoxy-1H-pyrazol-1-yl)pyridine] and CC(C)Oc1nn(-c2ncc(C3CC3)cn2)cc1Oc1ccccc1 [example 100, 5-cyclopropyl-2-(3-isopropoxy-4-phenoxy-1H-pyrazol-1-yl)pyrimidine] fall in the same range of MIC50: 0.05 to 0.5 µM (≈ 0.0168 to 0.168 µg/mL) for the first, 0.05 to 0.5 µM (≈ 0.0168 to 0.168 µg/mL) for the second.

First: CCOc1nn(-c2ncc(CC)cn2)c(C)c1Oc1ccccc1 [example 72, 2-(3-ethoxy-5-methyl-4-phenoxy-1H-pyrazol-1-yl)-5-ethylpyrimidine]
Second: CCOc1nn(-c2ncc(CC)cn2)c(C)c1Oc1ccccc1F [example 73, 2-(3-ethoxy-4-(2-fluorophenoxy)-5-methyl-1H-pyrazol-1-yl)-5-ethylpyrimidine]
The MIC50 of the first is higher: 0.5 to 5 µM (≈ 0.162 to 1.62 µg/mL) for the first, 0.05 to 0.5 µM (≈ 0.0171 to 0.171 µg/mL) for the second.

Cc1c(Oc2c(F)cccc2F)c(OC(C)C)nn1-c1ncccn1 [example 74, 2-(4-(2,6-difluorophenoxy)-3-isopropoxy-5-methyl-1H-pyrazol-1-yl)pyrimidine] and Cc1cc(Br)cnc1-n1nc(OC(C)C)c(Oc2c(F)cccc2F)c1C [example 85, 5-bromo-2-(4-(2,6-difluorophenoxy)-3-isopropoxy-5-methyl-1H-pyrazol-1-yl)-3-methylpyridine] fall in the same range of MIC50: 0.5 to 5 µM (≈ 0.173 to 1.73 µg/mL) for the first, 0.5 to 5 µM (≈ 0.219 to 2.19 µg/mL) for the second.

Compared with CC(C)Oc1nn(-c2ncc(C3CC3)cc2C#N)cc1Oc1ccccc1 [example 75, 5-cyclopropyl-2-(3-isopropoxy-4-phenoxy-1H-pyrazol-1-yl)nicotinonitrile], CC(C)Oc1nn(-c2ccc(C3CC3)cn2)cc1C(=O)c1ccccc1 [example 109, (1-(5-cyclopropylpyridin-2-yl)-3-isopropoxy-1H-pyrazol-4-yl)(phenyl)methanone] is lower in MIC50: over 5 µM for the first, 0.5 to 5 µM (≈ 0.174 to 1.74 µg/mL) for the second.

CCc1cnc(-n2nc(OC(C)C)c(Oc3ccc(F)cc3)c2C)nc1 [example 76, 5-ethyl-2-(4-(4-fluorophenoxy)-3-isopropoxy-5-methyl-1H-pyrazol-1-yl)pyrimidine] and CCc1cnc(-n2nc(OC(C)C)c(Oc3cccc(F)c3F)c2C)nc1 [example 77, 2-(4-(2,3-difluorophenoxy)-3-isopropoxy-5-methyl-1H-pyrazol-1-yl)-5-ethylpyrimidine] fall in the same range of MIC50: 0.05 to 0.5 µM (≈ 0.0178 to 0.178 µg/mL) for the first, 0.05 to 0.5 µM (≈ 0.0187 to 0.187 µg/mL) for the second.

CCOc1nn(-c2ncc(CC)cn2)c(C)c1Oc1ccccc1Cl [example 78, 2-(4-(2-chlorophenoxy)-3-ethoxy-5-methyl-1H-pyrazol-1-yl)-5-ethylpyrimidine] and CCOc1nn(-c2ncc(CC)cn2)c(C)c1Oc1cccc(Cl)c1Cl [example 80, 2-(4-(2,3-dichlorophenoxy)-3-ethoxy-5-methyl-1H-pyrazol-1-yl)-5-ethylpyrimidine] fall in the same range of MIC50: 0.05 to 0.5 µM (≈ 0.0179 to 0.179 µg/mL) for the first, 0.05 to 0.5 µM (≈ 0.0197 to 0.197 µg/mL) for the second.

First: CCOc1nn(-c2ncc(CC)cn2)c(C)c1Oc1cc(Cl)cc(Cl)c1 [example 79, 2-(4-(3,5-dichlorophenoxy)-3-ethoxy-5-methyl-1H-pyrazol-1-yl)-5-ethylpyrimidine]
Second: CCOc1nn(-c2ncc(CC)cn2)c(C)c1Oc1ccc(C(F)(F)F)cc1 [example 83, 2-(3-ethoxy-5-methyl-4-(4-(trifluoromethyl)phenoxy)-1H-pyrazol-1-yl)-5-ethylpyrimidine]
The MIC50 of the first is lower: 0.5 to 5 µM (≈ 0.197 to 1.97 µg/mL) for the first, over 5 µM for the second.

First: CCOc1nn(-c2ncc(CC)cn2)c(C)c1Oc1ccccc1C(F)(F)F [example 82, 2-(3-ethoxy-5-methyl-4-(2-(trifluoromethyl)phenoxy)-1H-pyrazol-1-yl)-5-ethylpyrimidine]
Second: CCc1cnc(-n2nc(OC(C)C)c(Cc3ccccc3OC)c2C)nc1 [example 101, 5-ethyl-2-(3-isopropoxy-4-(2-methoxybenzyl)-5-methyl-1H-pyrazol-1-yl)pyrimidine]
The MIC50 of the first is higher: 0.5 to 5 µM (≈ 0.196 to 1.96 µg/mL) for the first, 0.0005 to 0.05 µM (≈ 0.000183 to 0.0183 µg/mL) for the second.

Cc1c(Oc2c(F)cccc2F)c(OC(C)C)nn1-c1ccc(C(C)(C)O)cn1 [example 84, 2-(6-(4-(2,6-difluorophenoxy)-3-isopropoxy-5-methyl-1H-pyrazol-1-yl)pyridin-3-yl)propan-2-ol] and Cc1c(Oc2c(F)cccc2F)c(OC(C)C)nn1-c1ccc(C(C)(F)F)cn1 [example 91, 5-(1,1-difluoroethyl)-2-(4-(2,6-difluorophenoxy)-3-isopropoxy-5-methyl-1H-pyrazol-1-yl)pyridine] fall in the same range of MIC50: 0.05 to 0.5 µM (≈ 0.0202 to 0.202 µg/mL) for the first, 0.05 to 0.5 µM (≈ 0.0205 to 0.205 µg/mL) for the second.

Cc1c(Oc2c(F)cccc2F)c(OC(C)C)nn1-c1ncc(Br)cc1F [example 86, 5-bromo-2-(4-(2,6-difluorophenoxy)-3-isopropoxy-5-methyl-1H-pyrazol-1-yl)-3-fluoropyridine] and CC(=O)c1ccc(-n2nc(OC(C)C)c(Oc3c(F)cccc3F)c2C)nc1 [example 87, 1-(6-(4-(2,6-difluorophenoxy)-3-isopropoxy-5-methyl-1H-pyrazol-1-yl)pyridin-3-yl)ethanone] fall in the same range of MIC50: 0.05 to 0.5 µM (≈ 0.0221 to 0.221 µg/mL) for the first, 0.05 to 0.5 µM (≈ 0.0194 to 0.194 µg/mL) for the second.

Compared with CCOc1nn(-c2ccc(C(C)=O)cn2)c(C)c1Cc1ccccc1 [example 88, 1-(6-(4-benzyl-3-ethoxy-5-methyl-1H-pyrazol-1-yl)pyridin-3-yl)ethanone], CCOc1nn(-c2ccc(C(C)(F)F)cn2)c(C)c1Cc1ccccc1 [example 99, 2-(4-benzyl-3-ethoxy-5-methyl-1H-pyrazol-1-yl)-5-(1,1-difluoroethyl)pyridine] is lower in MIC50: over 5 µM for the first, 0.5 to 5 µM (≈ 0.179 to 1.79 µg/mL) for the second.

Cc1c(Cc2ccccc2)c(OC(C)C)nn1-c1ncccc1C#N [example 89, 2-(4-benzyl-3-isopropoxy-5-methyl-1H-pyrazol-1-yl)nicotinonitrile] and CCOc1nn(-c2ncc(OC)cn2)c(C)c1Cc1ccccc1 [example 112, 2-(4-benzyl-3-ethoxy-5-methyl-1H-pyrazol-1-yl)-5-methoxypyrimidine] fall in the same range of MIC50: 0.5 to 5 µM (≈ 0.166 to 1.66 µg/mL) for the first, 0.5 to 5 µM (≈ 0.162 to 1.62 µg/mL) for the second.

Cc1c(Cc2ccccc2F)c(OC(C)C)nn1-c1ccc(C2CC2)cn1 [example 90, 5-cyclopropyl-2-(4-(2-fluorobenzyl)-3-isopropoxy-5-methyl-1H-pyrazol-1-yl)pyridine] and Cc1c(Oc2cccc(F)c2)c(OC(C)C)nn1-c1ccc(C2CC2)cn1 [example 97, 5-cyclopropyl-2-(4-(3-fluorophenoxy)-3-isopropoxy-5-methyl-1H-pyrazol-1-yl)pyridine] fall in the same range of MIC50: 0.05 to 0.5 µM (≈ 0.0183 to 0.183 µg/mL) for the first, 0.05 to 0.5 µM (≈ 0.0184 to 0.184 µg/mL) for the second.

CCOc1nn(-c2ccc(C3CC3)cn2)c(C)c1Oc1ccccc1 [example 92, 5-cyclopropyl-2-(3-ethoxy-5-methyl-4-phenoxy-1H-pyrazol-1-yl)pyridine] and CCOc1nn(-c2ccc(C3CC3)cn2)c(C)c1Oc1cccc(C(F)(F)F)c1 [example 93, 5-cyclopropyl-2-(3-ethoxy-5-methyl-4-(3-(trifluoromethyl)phenoxy)-1H-pyrazol-1-yl)pyridine] fall in the same range of MIC50: 0.05 to 0.5 µM (≈ 0.0168 to 0.168 µg/mL) for the first, 0.05 to 0.5 µM (≈ 0.0202 to 0.202 µg/mL) for the second.

CCOc1nn(-c2ccc(C3CC3)cn2)c(C)c1Oc1ccc(C(F)(F)F)cc1 [example 94, 5-cyclopropyl-2-(3-ethoxy-5-methyl-4-(4-(trifluoromethyl)phenoxy)-1H-pyrazol-1-yl)pyridine] and Cc1c(Oc2ccc(F)cc2)c(OC(C)C)nn1-c1ccc(C2CC2)cn1 [example 98, 5-cyclopropyl-2-(4-(4-fluorophenoxy)-3-isopropoxy-5-methyl-1H-pyrazol-1-yl)pyridine] fall in the same range of MIC50: 0.5 to 5 µM (≈ 0.202 to 2.02 µg/mL) for the first, 0.5 to 5 µM (≈ 0.184 to 1.84 µg/mL) for the second.

CCOc1nn(-c2ccc(C3CC3)cn2)c(C)c1Oc1cc(Cl)ccc1Cl [example 95, 5-cyclopropyl-2-(4-(2,5-dichlorophenoxy)-3-ethoxy-5-methyl-1H-pyrazol-1-yl)pyridine] and CCOc1nn(-c2ccc(C3CC3)cn2)c(C)c1Oc1cc(Cl)cc(Cl)c1 [example 96, 5-cyclopropyl-2-(4-(3,5-dichlorophenoxy)-3-ethoxy-5-methyl-1H-pyrazol-1-yl)pyridine] fall in the same range of MIC50: 0.05 to 0.5 µM (≈ 0.0202 to 0.202 µg/mL) for the first, 0.05 to 0.5 µM (≈ 0.0202 to 0.202 µg/mL) for the second.

Compared with CCc1cnc(-n2nc(OC(C)C)c(Cc3cccc(OC)c3)c2C)nc1 [example 102, 5-ethyl-2-(3-isopropoxy-4-(3-methoxybenzyl)-5-methyl-1H-pyrazol-1-yl)pyrimidine], CCc1cnc(-n2nc(OC(C)C)c(Cc3ccc(OC)cc3)c2C)nc1 [example 111, 5-ethyl-2-(3-isopropoxy-4-(4-methoxybenzyl)-5-methyl-1H-pyrazol-1-yl)pyrimidine] is higher in MIC50: 0.0005 to 0.05 µM (≈ 0.000183 to 0.0183 µg/mL) for the first, 0.05 to 0.5 µM (≈ 0.0183 to 0.183 µg/mL) for the second.

First: CCc1cnc(-n2nc(OCCOCc3ccccc3)c(Cc3ccccc3)c2C)nc1 [example 103, 2-(4-benzyl-3-(2-(benzyloxy)ethoxy)-5-methyl-1H-pyrazol-1-yl)-5-ethylpyrimidine]
Second: CCOc1nn(-c2ncc(CC)cn2)c(C)c1I [example 106, 2-(3-ethoxy-4-iodo-5-methyl-1H-pyrazol-1-yl)-5-ethylpyrimidine]
The MIC50 of the first is lower: 0.0005 to 0.05 µM (≈ 0.000214 to 0.0214 µg/mL) for the first, over 5 µM for the second.

First: CC(C)Oc1nn(-c2ncc(C3CC3)cn2)cc1Sc1ccccc1 [example 104, 5-cyclopropyl-2-(3-isopropoxy-4-(phenylthio)-1H-pyrazol-1-yl)pyrimidine]
Second: CC(C)Oc1nn(-c2ccc(C3CC3)cn2)cc1Sc1ccccc1 [example 105, 5-cyclopropyl-2-(3-isopropoxy-4-(phenylthio)-1H-pyrazol-1-yl)pyridine]
The MIC50 of the first is lower: 0.0005 to 0.05 µM (≈ 0.000176 to 0.0176 µg/mL) for the first, 0.05 to 0.5 µM (≈ 0.0176 to 0.176 µg/mL) for the second.

CCOc1nn(-c2ncc(CC)cn2)cc1I [example 107, 2-(3-ethoxy-4-iodo-1H-pyrazol-1-yl)-5-ethylpyrimidine] and CCOc1nn(-c2ccc(C3CC3)cn2)c(C)c1I [example 108, 5-cyclopropyl-2-(3-ethoxy-4-iodo-5-methyl-1H-pyrazol-1-yl)pyridine] cannot be ordered by MIC50: over 5 µM for the first, over 5 µM for the second.

Work on Cc1c(Oc2cccnc2)c(OC(C)C)nn1-c1ncc(C2CC2)cn1 [example 110, 5-cyclopropyl-2-(3-isopropoxy-5-methyl-4-(pyridin-3-yloxy)-1H-pyrazol-1-yl)pyrimidine] yielded an MIC50 of 0.5 to 5 µM (≈ 0.176 to 1.76 µg/mL).
